Measured values reported in the supplement of paper PMC10307832.

Experiments:
Assay in all cases: relative viability (nuclei count vs DMSO), 5 days (fraction); higher = more cells survive
Tosedostat + Navitoclax = compound: CC(C)C[C@@H](C(=O)N[C@H](C(=O)OC1CCCC1)c1ccccc1)[C@H](O)C(=O)NO [Tosedostat] + CC1(C)CCC(c2ccc(Cl)cc2)=C(CN2CCN(c3ccc(C(=O)NS(=O)(=O)c4ccc(N[C@H](CCN5CCOCC5)CSc5ccccc5)c(S(=O)(=O)C(F)(F)F)c4)cc3)CC2)C1 [Navitoclax] (partner 0.5 µM)
Summary of the method: (§1)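 Values are medians from duplicate plates. Each reflects relative viability, defined as the nuclei count of treated wells over that of vehicle wells. Lung cancer cell lines in 1536-well plates were pin-tool dosed one day after seeding with one drug alone or with a fixed anchor-drug dose plus five library-drug doses (not always all listed) in √10 steps, then fixed, stained and imaged at 4× after 5 days.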

[1] = compound: CC1=NN=C(O1)C2=NN=C(C=C2)N3CCC(CC3)OC4=C(C=CC(=C4)F)Cl
Summary of the method: (§2)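 Following overnight incubation at 37 °C, lung cancer cell lines in 1536-well plates were pinned with five library-drug doses (not always all listed) in √10 steps on vehicle-anchored plates. The cells then spent 5 days without medium change before a combined fix, permeabilisation and Hoechst stain, 4× imaging and MetaXpress nuclear counts. Viability is the treated-to-vehicle ratio of nuclei, taken as the median across plates. Only plates with control CV below 25% and at least one doubling passed.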

Tosedostat = compound: CC(C)C[C@@H](C(=O)N[C@H](C(=O)OC1CCCC1)c1ccccc1)[C@H](O)C(=O)NO [Tosedostat]
Summary of the method: as §2

Tosedostat + Foretinib = compound: CC(C)C[C@@H](C(=O)N[C@H](C(=O)OC1CCCC1)c1ccccc1)[C@H](O)C(=O)NO [Tosedostat] + COc1cc2c(Oc3ccc(NC(=O)C4(C(=O)Nc5ccc(F)cc5)CC4)cc3F)ccnc2cc1OCCCN1CCOCC1 [Foretinib] (partner 0.25 µM)
Summary of the method: as §1

Cell Line | relative viability (Tosedostat + Navitoclax; first compound 0.02 µM) | relative viability (Tosedostat + Navitoclax; first compound 0.06325 µM) | relative viability (Tosedostat + Navitoclax; first compound 0.2 µM) | relative viability (Tosedostat + Navitoclax; first compound 0.6325 µM) | relative viability (Tosedostat + Navitoclax; first compound 2 µM) | relative viability ([1]; 0.253 µM) | relative viability ([1]; 0.8 µM) | relative viability ([1]; 2.53 µM) | relative viability ([1]; 8 µM) | relative viability (Tosedostat; 0.02 µM) | relative viability (Tosedostat; 0.06325 µM) | relative viability (Tosedostat; 0.2 µM) | relative viability (Tosedostat; 0.6325 µM) | relative viability (Tosedostat; 2 µM) | relative viability (Tosedostat + Foretinib; first compound 0.02 µM) | relative viability (Tosedostat + Foretinib; first compound 0.06325 µM) | relative viability (Tosedostat + Foretinib; first compound 0.2 µM) | relative viability (Tosedostat + Foretinib; first compound 0.6325 µM) | relative viability (Tosedostat + Foretinib; first compound 2 µM)
HCC-44 | 0.849 | 0.912 | 0.949 | 0.946 | 0.539 | 0.492 | 0.542 | 0.509 | 0.517 | 1.09 | 1.01 | 0.982 | 0.905 | 0.628 |  |  |  |  | 
HCC-827 | 1.01 | 1.03 | 1.06 | 1.03 | 0.86 | 0.47 | 0.297 | 0.455 | 0.443 | 1.03 | 1.06 | 1.1 | 0.957 | 1.01 | 0.999 | 1.09 | 1.06 | 0.946 | 0.895
NCI-H1623 |  |  |  |  |  | 0.897 | 0.734 | 0.918 | 0.926 | 1.06 | 0.895 | 0.907 | 0.798 | 0.965 | 0.825 | 0.905 | 0.856 | 0.843 | 0.794
NCI-H441 | 1.01 | 0.477 | 0.421 | 0.576 | 0.339 | 0.672 | 0.388 | 0.595 | 0.519 | 1.12 | 0.92 | 0.749 | 0.69 | 0.731 | 0.906 | 1.1 | 0.992 | 0.63 | 0.604
NCI-H1734 | 0.833 | 0.801 | 0.789 | 0.735 | 0.683 | 0.954 | 0.729 | 0.966 | 0.859 | 1.1 | 0.903 | 0.959 | 0.866 | 0.822 | 0.93 | 0.859 | 0.826 | 0.818 | 0.652
HARA | 1.17 | 1.2 | 1.1 | 0.894 | 1.15 | 0.484 | 0.387 | 0.538 | 0.355 | 1.15 | 0.977 | 0.922 | 0.887 | 0.774 | 0.941 | 0.914 | 0.852 | 0.813 | 0.787
NCI-H1703 | 0.89 | 0.945 | 0.898 | 0.635 | 0.691 | 0.786 | 0.873 | 0.933 | 0.829 | 0.995 | 0.789 | 0.763 | 0.572 | 0.726 | 0.329 | 0.288 | 0.327 |  | 0.322
NCI-H1395 | 1.06 | 1.19 | 0.905 | 0.917 | 0.886 | 0.823 | 0.762 | 0.813 | 0.882 | 0.894 | 0.938 | 0.972 | 0.889 | 0.78 | 0.917 | 1.05 | 0.952 | 0.918 | 0.871
NCI-H1563 |  |  |  |  |  | 0.986 | 0.954 | 0.995 | 0.993 | 1.03 | 1.07 | 1.05 | 1.13 | 1.08 | 0.961 | 0.997 | 0.958 | 1.12 | 1
ABC-1 |  |  |  |  |  | 0.374 | 0.421 | 0.473 | 0.472 | 1.24 | 0.869 | 0.911 | 0.928 | 0.765 | 1.23 | 0.971 | 1.02 | 1.18 | 1.11
SW 900 |  |  |  |  |  |  | 0.545 | 0.805 | 0.574 | 0.887 | 0.952 | 0.855 | 0.767 | 0.669 | 0.854 | 0.904 | 0.709 | 0.765 | 0.61
NCI-H1648 |  |  |  |  |  | 0.435 | 0.462 | 0.56 | 0.496 | 1.01 | 0.923 | 0.881 | 0.935 | 0.578 |  |  |  |  | 
NCI-H1792 | 0.63 | 0.839 | 0.651 | 0.652 | 0.567 | 0.748 | 0.741 | 0.833 | 0.846 | 1.01 | 1.11 | 0.963 | 0.828 | 1.07 |  |  |  |  | 
LCLC-103H |  |  |  |  |  | 0.604 | 0.71 | 0.705 | 0.632 | 1.06 | 0.95 | 1 | 1.11 | 1.07 | 0.787 | 0.797 | 0.878 | 0.797 | 0.777
NCI-H358 |  |  |  |  |  | 0.628 | 0.563 | 0.589 | 0.49 | 1.11 | 0.866 | 0.782 | 0.452 | 0.425 | 0.872 | 0.634 | 0.473 | 0.289 | 0.347
NCI-H2342 |  |  |  |  |  | 0.678 | 0.675 | 0.604 | 0.525 | 0.954 | 0.998 | 0.986 | 0.944 | 0.94 | 0.944 | 1.01 | 1.27 | 0.924 | 0.89
NCI-H522 |  |  |  |  |  | 0.964 | 0.933 | 0.957 | 0.955 | 0.908 | 1.01 | 0.897 | 1.05 | 1.01 |  |  |  |  | 
NCI-H650 |  |  |  |  |  | 0.927 | 0.72 | 0.865 | 0.71 | 1.07 | 0.988 | 0.731 | 0.787 | 0.789 | 1.05 | 1.04 | 0.92 | 0.941 | 0.765
NCI-H661 |  |  |  |  |  | 0.859 | 0.816 | 0.731 | 0.71 | 1.01 | 0.991 | 0.948 | 0.926 | 0.934 | 1.07 | 0.99 | 0.98 | 0.979 | 0.937
